US8436030B2, “Polymorphic forms of deferasirox (ICL670A)” (Navartis AG, priority 2006, dated 2013)

Assay: Solubility of solid forms (comparative statement)
Assay type: physicochemical
Conditions: as compared to the crystalline form A or B

## O=C(O)c1ccc(-n2nc(-c3ccccc3O)nc2-c2ccccc2O)cc1 [amorphous form, 4-[3,5-bis(2-hydroxyphenyl)-[1,2,4]triazol-1-yl]benzoic acid]
  solubility: highest solubility
